US20020156032A1, “Inhibition of DNA methyltransferase” (priority 1994, published 2002)

How the values were obtained:
Y1 cells [1] = test: Anchorage independent growth in soft agar; type: cell-based; settings: 0-10 μM for 72 h, then soft agar without drug
Method: Yl cells were maintained as monolayers in F-10 medium which was supplemented with 7.25% heat inactivated horse serum and 2.5% heat inactivated fetal calf serum (Immunocorp, Montreal). All other media and reagents for cell culture were obtained from GIBCO-BRL. Yl cells (1×10^6) were plated on a 150 mm dish (Nunc) 15 hours before transfection. The pZαM expression vector encoding the 5′ of the murine DNA MeTase cDNA (10 ug) was cointroduced into Yl cells with 1 ug of pUCSVneo as a selectable marker by DNA mediated gene transfer using the calcium phosphate protocol (Ausubel et al., 1988, In Current Protocols in Molecular Biology. Wiley and Sons, New York). Selection was initiated 48 hours after transfection by adding 0.25 mg/ml G418 (GIBCO-BRL) to the medium. G418 resistant cells were cloned in selective medium. […] Growth was scored as colonies containing >10 cells, 21 days after plating.
To determine whether the expression of antisense to the DNA MeTase results in reversal of the tumorigenic potential the ability of the transfectants to grow in an anchorage independent fashion, which is considered an indicator of tumorigenicity, was also determined. […] Growth on soft agar was quantified by visual examination and presented graphically in FIG. 4C. […]

Y1 cells [2] = test: Viability by trypan blue staining under serum deprivation; type: cell-based; settings: 0-10 μM for 72 h, then 1% horse serum five days without drug
From the text: Factors present in the serum are essential for the survival of many nontumorigenic cells. […] For example, the oncogene bc1-2 is not a stimulator of cell proliferation but rather causes inhibition of apoptosis. […] It was reasoned that as factors in the serum are known to act as survival factors for cells, an apoptotic program could be activated only when these factors are remove. To test whether pZαM transfectants undergo programmed cell death under serum deprived condition, the effects of serum starvation on these transfectants was studied. pZαM transfectants and control Yl pZEM transfectants (3×10^5 per well) were plated in low serum medium (1% horse serum) in six well plates, harvested every 24 hours and tested for viability by trypan blue staining (FIG. 7B).
1×10^5 Y1 cells were plated in growth medium. Twenty-four hours after plating, the medium was replaced with fresh medium containing various concentrations (0-10 μM) of 5 azaCdR (Sigma). The medium was removed and replaced with fresh medium containing 5 azaCdR every 12 h for a period of 72 h. Following 5 azaCdR treatment the cells were plated onto a six well dish in growth medium (100, 300, 500 cells per well) for cologinecity determinations, in soft agar for determining anchorage independent growth (3×10^3 cells per well) and in low serum (1% horse serum) for five days to determine viability under serum deprived conditions. […]

DNA MeTase = target: T1, DNA MeTase (Mus musculus, UniProt P13864); test: Nearest neighbour analysis of methylated cytosines in CpG of total genomic DNA; type: cell-based, murine; settings: Y1 cells, 0-10 μM for 72 h
T1 construct: endogenous in cells; host or cells: Y1 cells (parental, pZEM control transfectants and pZαM antisense transfectants)
T1 sequence (P13864 whole entry): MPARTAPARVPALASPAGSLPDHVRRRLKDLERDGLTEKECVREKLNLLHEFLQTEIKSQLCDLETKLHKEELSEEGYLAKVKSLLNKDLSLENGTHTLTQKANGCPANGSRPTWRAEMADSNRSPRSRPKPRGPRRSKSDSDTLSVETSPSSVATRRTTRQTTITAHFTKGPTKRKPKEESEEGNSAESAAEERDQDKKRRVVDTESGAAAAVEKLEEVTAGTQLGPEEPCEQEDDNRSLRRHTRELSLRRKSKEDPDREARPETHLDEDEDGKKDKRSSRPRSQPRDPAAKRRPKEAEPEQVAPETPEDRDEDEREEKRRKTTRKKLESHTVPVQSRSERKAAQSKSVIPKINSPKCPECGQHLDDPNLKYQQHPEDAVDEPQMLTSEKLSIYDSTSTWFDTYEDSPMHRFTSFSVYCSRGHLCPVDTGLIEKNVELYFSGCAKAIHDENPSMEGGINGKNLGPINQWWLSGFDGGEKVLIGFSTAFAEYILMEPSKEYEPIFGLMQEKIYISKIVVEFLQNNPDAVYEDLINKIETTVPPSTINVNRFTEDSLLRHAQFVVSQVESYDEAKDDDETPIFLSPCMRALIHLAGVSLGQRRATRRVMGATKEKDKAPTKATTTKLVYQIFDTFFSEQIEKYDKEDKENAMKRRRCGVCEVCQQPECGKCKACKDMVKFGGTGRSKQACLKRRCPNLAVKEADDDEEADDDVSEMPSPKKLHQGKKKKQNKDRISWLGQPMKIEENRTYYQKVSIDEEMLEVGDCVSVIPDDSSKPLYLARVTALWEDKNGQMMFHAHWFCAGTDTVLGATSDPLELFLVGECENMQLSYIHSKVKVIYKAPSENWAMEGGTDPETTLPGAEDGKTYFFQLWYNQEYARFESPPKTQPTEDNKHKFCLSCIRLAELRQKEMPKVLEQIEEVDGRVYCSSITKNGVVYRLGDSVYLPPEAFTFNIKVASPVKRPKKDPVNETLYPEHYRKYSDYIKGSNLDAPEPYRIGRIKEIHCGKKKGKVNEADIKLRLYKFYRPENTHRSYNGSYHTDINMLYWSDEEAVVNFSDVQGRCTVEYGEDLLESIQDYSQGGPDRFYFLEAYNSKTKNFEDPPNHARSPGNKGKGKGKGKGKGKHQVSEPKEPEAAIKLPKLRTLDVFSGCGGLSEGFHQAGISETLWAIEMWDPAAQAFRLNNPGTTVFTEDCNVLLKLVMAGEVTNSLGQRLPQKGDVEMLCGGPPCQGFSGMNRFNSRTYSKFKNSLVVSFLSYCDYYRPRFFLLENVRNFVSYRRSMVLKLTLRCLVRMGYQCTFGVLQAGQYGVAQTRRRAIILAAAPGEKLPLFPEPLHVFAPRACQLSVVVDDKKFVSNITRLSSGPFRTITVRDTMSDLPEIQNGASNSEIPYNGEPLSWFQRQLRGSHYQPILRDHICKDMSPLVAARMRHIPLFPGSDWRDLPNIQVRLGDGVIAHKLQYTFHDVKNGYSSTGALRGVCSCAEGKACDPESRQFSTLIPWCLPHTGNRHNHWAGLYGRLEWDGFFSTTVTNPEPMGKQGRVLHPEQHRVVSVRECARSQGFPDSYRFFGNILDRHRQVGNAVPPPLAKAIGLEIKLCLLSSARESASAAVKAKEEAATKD
Method: To determine whether expression of antisense RNA to the DNA MeTase gene leads to a general reduction in the level of methylation of the genome, we resorted to “nearest neighbour” analysis using [α-32P]-dGTP as previously was performed. This assay enables the determination of the percentage of methylated cytosines residing in the dinucleotide sequence CpG (Razin et al., 1985, IN Biochemistry and Biology of DNA methylation, p. 239, Razin et al., (Ed), Allan R. Liss, Inc. N.Y.). […] Equal amounts of radioactivity were loaded on TLC phosphocellulose plates (Merck) and the 3′ mononucleotides were separated by chromatography in one dimension (iso-butyric acid: H2O:NH4OH in the ratio 66:33:1). The chromatograms were exposed to XAR™ film (Eastman-Kodak) and the spots corresponding to cytosine and 5-methylcytosine were scraped and counted in a β-scintillation counter.
Transfectants and control DNAs were nicked with DNAaseI, nick translated with a single nucleotide [α-32P]-dGTP using DNA polymerase I and the labelled DNA was digested to 3′ mononucleotide phosphates with micrococal nuclease which cleaves DNA 3′ to the introduced α-32p. The [α-32P] labelled 5′ neighbours of dGMP were separated by chromatography on a TLC plate, the resulting spots for dCMP and dC^metMp were scraped and counted by liquid scintillation. […]

Nc1ncn([C@H]2C[C@H](O)[C@@H](CO)O2)c(=O)n1 [5 azaCdR]
growth on soft agar (Y1 cells [1]): drastically inhibit the growth of Y1 cells on soft agar
viability of serum-starved cells (Y1 cells [2]): decrease the viability of serum-starved cells
level of non-methylated cytosine in CpG (DNA MeTase): increase the level of non-methylated cytosine
